Data: BindingDB's records for doi:10.1128/aac.00737-07 (Duke University Medical Center, 2008)

Key:
[1] = Inhibition of HIV1 (isolate YU2) envelope glycoprotein 120-mediated membrane fusion between virus-transfected african green monkey COS cells and human TZM-bl cells by luciferase-based cell-cell fusion assay in absence of IC9564
[2] = Inhibition of HIV1 (isolate YU2) envelope glycoprotein 120-mediated membrane fusion between virus-transfected african green monkey COS cells and human TZM-bl cells by luciferase-based cell-cell fusion assay in presence of IC9564

For `COc1ccnc2[nH]cc(C(=O)C(=O)N3CCN(C(=O)c4ccccc4)C[C@H]3C)c12` [(R)-1-(4-benzoyl-2-methylpiperazin-1-yl)-2-(4-methoxy-1H-pyrrolo[2,3-b]pyridin-3-yl)ethane-1,2-dione], the IC50 [1] was 137 nM and the IC50 [2] was 34.4 nM.
